# In patent US7462615B2, “Inhibitors of cysteine proteases, the pharmaceutical compositions thereof and their therapeutic applications” (Hybrigenics SA, priority 2005, dated 2008):
# Target: T1, MBP-SENP1 (Homo sapiens, UniProt Q9P0U3)
# T1 construct: made in house; host or cells: E. coli BL21
# T1 sequence (Q9P0U3 1-644): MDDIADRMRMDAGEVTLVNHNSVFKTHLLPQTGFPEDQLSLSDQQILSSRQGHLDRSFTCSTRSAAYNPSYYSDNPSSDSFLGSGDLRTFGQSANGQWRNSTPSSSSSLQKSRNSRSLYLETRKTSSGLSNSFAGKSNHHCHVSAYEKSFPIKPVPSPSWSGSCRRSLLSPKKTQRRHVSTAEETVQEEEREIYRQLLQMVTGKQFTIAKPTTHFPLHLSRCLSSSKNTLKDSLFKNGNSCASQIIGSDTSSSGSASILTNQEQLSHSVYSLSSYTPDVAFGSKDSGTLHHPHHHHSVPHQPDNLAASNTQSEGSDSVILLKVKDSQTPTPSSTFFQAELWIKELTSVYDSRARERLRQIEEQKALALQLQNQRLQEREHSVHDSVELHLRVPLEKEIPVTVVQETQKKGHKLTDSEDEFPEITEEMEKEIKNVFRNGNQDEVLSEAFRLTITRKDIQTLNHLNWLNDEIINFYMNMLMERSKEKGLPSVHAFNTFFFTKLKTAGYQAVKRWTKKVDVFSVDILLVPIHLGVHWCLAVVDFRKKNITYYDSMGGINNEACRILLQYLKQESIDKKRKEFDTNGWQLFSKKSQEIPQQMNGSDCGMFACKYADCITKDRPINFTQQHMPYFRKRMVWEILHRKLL
# Test: SENP1 Activity Assay
# Assay type: biochemical
# Details: 200 nM SUMO-AMC; 1.8 nM enzyme; pre-incubated 30 minutes at 25° C., 60 minutes at 37° C.; sigmoidal fit; read-out: SENP1 (Inhibition of cysteine protease activities)
# Description: The cDNA encoding SENP1 was obtained by PCR amplification from placenta mRNA. SENP1 cDNA was subcloned by PCR into a bacterial expression vector (pMAL-C2X; New England BioLabs, Inc). The sequence was ascertained by sequencing of the entire open reading frame. pMAL-C2-SENP1 was transformed into BL21 cells and grown in LB-ampicillin medium supplemented with glucose (2 g.l^−1). Fusion protein expression was induced by IPTG (0.5 mM). Bacterial cell lysates were harvested and lyzed in lysis buffer (Tris HCl 20 mM pH7.4; 1 mM EDTA; 200 mM NaCl; 0.5% Triton X-100; 10% glycerol; Protease Inhibitor Cocktail) followed by sonication. Proteins were affinity purified on amylose affinity resin (New England BioLabs, Inc). Bound materials were extensively washed in wash buffer (20 mM Tris HCl pH7.4; 200 mM NaCl; 1 mM EDTA; 0.5% Triton X-100; 10% glycerol) and eluted from the resin in 10 mM maltose-containing wash buffer. Proteins were dialyzed in dialysis buffer (Tris HCl pH 7.6 20 mM; NaCl 200 mM; DTT 1 mM; EDTA 1 mM; 10% Glycerol). Proteins purifications were analyzed on 4-12% NuPAGE (Invitrogen).
# MBP-SENP1 was diluted in SENP1 buffer (50 mM Tris HCl; 0.5 mM EDTA; 5 mM DTT; 0.01% Triton X-100; Bovine Serum Albumin 0.05 mg.ml^−1 pH7.6). Compounds stocks (100 mM) were stored at −20° C. in DMSO. Compounds were tested at the following final concentrations: 100 μM; 33.3 μM; 11.1 μM; 3.7 μM; 1.23 μM; 412 nM; 137 nM; 45.7 nM; 15.2 nM; 5 nM.
# Reactions were performed as duplicates in Black LJL 96 well plates (HE microplates; Molecular Devices; 20 μl final reaction volume). The substrate concentration for SENP1 was 200 nM SUMO-AMC (Chem. Biol., 2003, 10, p. 837-846) (Boston Biochem). The concentration of the enzyme (SENP1) in specificity assays was 1.8 nM. The concentrations were determined in order to perform specificity assays under initial velocities at fixed substrate concentration. Compounds were pre-incubated with enzymes for 30 minutes at 25° C. Reactions were initiated by addition of substrate to the plates containing the enzymes (+/− compounds) diluted in assay buffer. Reactions were incubated for 60 minutes at 37° C. Reactions were stopped by adding acetic acid (100 mM final). Readings were performed on a Pherastar Fluorescent Reader (BMG). λ Emission 380 nm; λ Excitation=460 nm. Data (mean values +/− standard deviation) were analyzed as % of control (no compound) and plotted as percentage versus the Log of the compound concentration using GraphPad (Prism). Data were fitted to a sigmoidal model (variable slope).
row,IC50 [nM],Compound
1,> 100000,"6-(7)-Chloro-1-methyl-2,3,4,10,10a-pentaaza-cyclopenta[b]fluoren-9-one [Example 3/A]"
2,706,"Cc1nnc2nc3c(nn12)-c1ccccc1C3=O [Example 1b/B, 3-Methyl-1,2,3a,4,10-pentaaza-cyclopenta[b]fluoren-9-one]"
3,731,"Nc1nnc2nc3c(nn12)-c1ccccc1C3=O [Example 1c/B, 3-Amino-1,2,3a,4,10-pentaaza-cyclopenta[b]fluoren-9-one]"
4,415,"CCc1nnc2nc3c(nn12)-c1ccccc1C3=O [Example 1d/B, 3-Ethyl-1,2,3a, 4,10-pentaaza-cyclopenta[b]fluoran-9-one]"
5,1090,"COCc1nnc2nc3c(nn12)-c1ccccc1C3=O [Example 1i/B, 3-Methoxymethyl-1,2,3a, 4,10-pentaaza-cyclopenta[b]fluoren-9-one]"
6,> 100000,"O=C1c2ccccc2-c2nc3nnc(C4CC4)n3nc21 [Example 1j/A, 1-Cyclopropyl-2,3,4,10,10a-pentaaza-cyclopenta[b]fluoren-9-one]"
7,1210,"O=C1c2ccccc2-c2nn3c(Cc4ccccc4)nnc3nc21 [Example 1k/B, 3-Benzyl-1,2,3a,4,10-pentaaza-cyclopenta[b]fluoren-9-one]"

# Second part, the compound before the results:
row,Compound,IC50 [nM]
1,"CCc1nnc2nc3c(nn12)C(=O)c1ccccc1-3 [Example 1d/A, 1-Ethyl-2,3,4,10,10a-pentaaza-cyclopenta[b]fluoren-9-one]",> 100000
2,"CCCc1nnc2nc3c(nn12)C(=O)c1ccccc1-3 [Example 1e/A, 1-Propyl-2,3,4,10,10a-pentaaza-cyclopenta[b]fluoren-9-one]",5880
3,"CCCc1nnc2nc3c(nn12)-c1ccccc1C3=O [Example 1e/B, 3-Propyl-1,2,3a, 4,10-pentaaza-cyclopenta[b]fluoren-9-one]",694
4,"CCCCc1nnc2nc3c(nn12)C(=O)c1ccccc1-3 [Example 1f/A, 1-Butyl-2,3,4,10,10a-pentaaza-cyclopenta[b]fluoren-9-one]",> 100000
5,"CCCCc1nnc2nc3c(nn12)-c1ccccc1C3=O [Example 1f/B, 3-Butyl-1,2,3a,4,10-pentaaza-cyclopenta[b]fluoren-9-one]",229
6,"CC(C)Cc1nnc2nc3c(nn12)C(=O)c1ccccc1-3 [Example 1g/A, 1-Isobutyl-2,3,4,10,10a-pentaaza-cyclopenta[b]fluoren-9-one]",> 100000
7,"CC(C)Cc1nnc2nc3c(nn12)-c1ccccc1C3=O [Example 1g/B, 3-Isobutyl-1,2,3a,4,10-pentaaza-cyclopenta[b]fluoren-9-one]",954
8,O=C1c2ccccc2-c2nn3c(CO)nnc3nc21 [Example 1h/B],1020
9,"COCc1nnc2nc3c(nn12)C(=O)c1ccccc1-3 [Example 1i/A, 1-Methoxymethyl-2,3,4,10,10a-pentaaza-cyclopenta[b]fluoren-9-one]",22100
10,"O=C1c2ccccc2-c2nn3c(C4CC4)nnc3nc21 [Example 1j/B, 3-Cyclopropyl-1,2,3a,4,10-pentaaza-cyclopenta[b]fluoren-9-one]",299
11,"O=C1c2ccccc2-c2nc3nnc(Cc4ccccc4)n3nc21 [Example 1k/A, 1-Benzyl-2,3,4,10,10a-pentaaza-cyclopenta[b]fluoren-9-one]",> 100000
12,"Cc1nnc2nc3c(nn12)-c1ccc(Cl)cc1C3=O [Example 3/B, 7-Chloro-3-methyl-1,2,3a, 4,10-pentaaza-cyclopenta[b]fluoren-9-one]",855

# Test system: PC-3 prostate cancer cells
# Test: PC3 Cell Viability and Proliferation Assay
# Assay type: cell-based
# Details: 72 hours, MTS, mean of three independent experiments, read-out: PC3 GI50 D3
# Description: PC-3 prostate cancer cells were obtained from ATCC, and maintained in F-12K medium containing 7% FBS and 1% penicillin/streptomycin. Cells were incubated at 37° C. in a humidified atmosphere containing 5% CO2.
# Cell viability was assayed using the MTS technique in 96-well culture plates (CellTiter 96® Aqueous Non-Radioactive Cell Proliferation Assay, Promega) according to the manufacturer's instructions. MTS (3-(4,5-dimethyl-thiazol-2-yl)-5-(3-carboxymethoxyphenyl)-2-(4-sulfophenyl)-2H-tetrazolium) is a MTT-derived tetrazolium that is reduced in metabolically active cells into a soluble, cell-permeant formazan. The amount of formazan, detected by its absorbance at 492 nm is proportional to the number of living, metabolically active cells.
# 2×10^3 PC3 cells were seeded per well. 24 hours later, the medium was changed and the cells treated in triplicate with the following concentrations of each compound: 10 μM-3.33 μM-1.11 μM-370 nM-123 nM-41 nM-14 nM and 5 nM. The compounds were diluted in 100% DMSO, whose final concentration on cells was kept at 0.5%.
# Cells were incubated with the compounds for 72 hours, and their viability then assayed by the addition of MTS for 2 hours. Absorbance at 492 nm was measured directly from the 96-well culture plates. GI50 (Growth Inhibition 50) concentrations for each compound were calculated using a sigmoidal variable slope fit (Prism 4.0, Graphpad Softwares). Values represent mean of three independent experiments.
row,GI50 [nM],Compound
1,994,"6-(7)-Chloro-1-methyl-2,3,4,10,10a-pentaaza-cyclopenta[b]fluoren-9-one [Example 3/A]"

# Same assay, conditions: Homo sapiens, PC-3, 72 hours, MTS, mean of three independent experiments, read-out: PC3 GI50 D3
row,GI50 [nM],Compound
1,> 10000,"Nc1nnc2nc3c(nn12)C(=O)c1ccccc1-3 [Example 1c/A, 1-Amino-2,3,4,10,10a-pentaaza-cyclopenta[b]fluoren-9-one]"
2,> 10000,"Cn1nc2nc3c(nc2n1)-c1ccccc1C3=O [Example 4a, 2-Methyl-2H-1,2,3,4,10-pentaaza-cyclopenta[b]fluoren-9-one]"
3,> 10000,"O=C1c2ccccc2-c2nc3nn(Cc4ccccc4)nc3nc21 [Example 4b, 2-Benzyl-2H-1,2,3,4,10-pentaaza-cyclopenta[b]fluoren-9-one]"
